PubChem BioAssay (NCI)
Where “and” joins values, the source holds several entries; their conditions need not be identical. Identical values can stand only once.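 The compound was tested at five concentrations on cells cultured in 96-well plates, with a 48-hour exposure period. The concentration for 50% growth inhibition is given as GI50. TGI is the concentration that stops growth completely.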

How the values were obtained:
Assay in all cases: NCI anticancer screen, dose series, 48 h
UACC-62 melanoma = test system: UACC-62 melanoma
HCT-15 colon = test system: HCT-15 colon
KM12 colon = test system: KM12 colon
ACHN renal = test system: ACHN renal
MALME-3M melanoma = test system: MALME-3M melanoma
OVCAR-3 ovarian = test system: OVCAR-3 ovarian
SW-620 colon = test system: SW-620 colon
NCI-H460 lung = test system: NCI-H460 lung
CAKI-1 renal = test system: CAKI-1 renal
RPMI-8226 leukemia = test system: RPMI-8226 leukemia

SMILES | TGI (UACC-62 melanoma) | TGI (HCT-15 colon) | TGI (KM12 colon) | TGI (ACHN renal) | TGI (MALME-3M melanoma) | TGI (OVCAR-3 ovarian) | TGI (SW-620 colon) | TGI (NCI-H460 lung) | TGI (CAKI-1 renal) | TGI (RPMI-8226 leukemia) | GI50 (NCI-H460 lung) | GI50 (UACC-62 melanoma) | GI50 (SW-620 colon) | GI50 (HCT-15 colon) | GI50 (CAKI-1 renal) | GI50 (KM12 colon) | GI50 (ACHN renal) | GI50 (OVCAR-3 ovarian) | GI50 (RPMI-8226 leukemia) | GI50 (MALME-3M melanoma)
CCCCCCCCCCCCCCCC(=O)NCC(OCC)OCC | > 100 µM | > 100 µM | > 100 µM | > 100 µM | > 100 µM | > 100 µM | > 100 µM | > 100 µM |  |  |  |  |  |  |  |  |  |  |  | 
COC(=O)CCSC(=O)Nc1ccccc1Cl | > 100 µM | > 100 µM | > 100 µM | > 100 µM |  | > 100 µM | > 100 µM | > 100 µM | > 100 µM | > 100 µM |  |  |  |  |  |  |  |  |  | 
Cc1c2cc[n+](C)cc2c(C)c2c1[nH]c1ccc(Oc3ccccc3)cc12 | 7.5 µM and 7.54 µM | > 100 µM | 18.8 µM and > 100 µM | > 38.4 µM and 19 µM |  | > 37.6 µM and 31.7 µM | > 37.9 µM and 40.6 µM | 14 µM and 11.4 µM | > 100 µM | 23.8 µM and 16.1 µM | 1.64 µM and 1.06 µM |  |  |  |  |  |  |  |  | 
CC(=O)OCc1cc2c(s1)C(=O)c1sccc1C2=O | 0.305 µM | 0.303 µM | 0.562 µM | 0.246 µM | 0.659 µM | 0.492 µM | 0.268 µM | 0.322 µM | 3.24 µM |  |  |  |  |  |  |  |  |  |  | 
NC1CC(n2ccc(=O)[nH]c2=O)OC1C(O)CO (stereo not given) | > 100 µM | > 100 µM | > 100 µM | > 100 µM | > 100 µM | > 100 µM | > 100 µM | > 100 µM |  | > 100 µM |  |  |  |  |  |  |  |  |  | 
C=CCCC1(CCP(=O)(c2ccccc2)c2ccccc2)OCCO1 | > 100 µM | > 100 µM | > 100 µM | > 100 µM | > 100 µM | > 100 µM | > 100 µM | > 100 µM |  | > 100 µM |  |  |  |  |  |  |  |  |  | 
COc1cc([C@H]2c3cc(O)c(OC)cc3C[C@]3(O)[C@@H]2CO[C@@H]3O)ccc1O | > 100 µM | > 100 µM | > 100 µM | > 100 µM |  | > 100 µM | > 100 µM | > 100 µM | > 100 µM | > 100 µM |  |  |  |  |  |  |  |  |  | 
Cn1nc(-c2ccccc2)c(C(=O)/C=C/c2ccccc2)c(N2CCCC2)c1=O | 41 µM | 72.5 µM |  | 41.5 µM |  |  | 53.7 µM | 32.4 µM |  | 29.3 µM |  |  |  |  |  |  |  |  |  | 
Cc1cc(C2(c3cc(C)c(O)c4ncccc34)OC(=O)c3ccccc32)c2cccnc2c1O | 14.6 µM |  | > 100 µM | 1.17 µM and 1.45 µM | > 100 µM |  | > 100 µM | 0.203 µM | 1.07 µM | > 100 µM |  | 0.0209 µM | 0.0521 µM |  |  |  |  |  |  | 
N#Cc1c(N/N=C/c2c(Cl)cccc2Cl)nc(N)nc1N1CCCC1 | > 100 µM | 20 µM | > 100 µM | > 100 µM |  | > 100 µM | > 100 µM |  | > 100 µM | 8.21 µM |  | 1.47 µM | 1.38 µM | 0.645 µM | 1.29 µM | 3.02 µM | 3.18 µM | 0.878 µM | 2.56 µM | 
O=C(CO[N+](=O)[O-])OCC(=O)c1ccccc1 |  | > 100 µM | > 100 µM | > 100 µM | > 100 µM | > 100 µM | > 100 µM | > 100 µM | > 100 µM | > 100 µM |  |  |  |  |  |  |  |  |  | 
Oc1ccc(CCNc2nc3ccccc3c3[nH]c4ccccc4c23)cc1 | 3.04 µM | 2.93 µM | 2.98 µM | 2.52 µM | 3.46 µM | 3.24 µM |  |  | 3.76 µM |  |  | 1.66 µM |  | 1.16 µM | 1.59 µM | 1.2 µM | 1.27 µM | 1.6 µM |  | 1.79 µM
O=NNc1nc(-c2ccccn2)nc2ccccc12 | 65 µM | 14.7 µM | > 100 µM | 42.5 µM | 19.6 µM | > 100 µM | 27.7 µM | > 100 µM | > 100 µM |  |  |  |  |  |  |  |  |  |  | 
CCn1c(SC)nnc1-c1cc2c([nH]c3ccccc32)c(-c2cccc(O)c2)n1 | 8.71 µM | 51.6 µM | 44.7 µM | 6.47 µM | 9.58 µM | 5.35 µM | > 100 µM | 16.6 µM |  | 10.2 µM | 1.6 µM | 1.27 µM | 1.44 µM | 0.95 µM |  | 3 µM | 2.12 µM | 1.67 µM | 1.58 µM | 1.37 µM
O=C1COc2cc3c(cc2N1)SCC(=O)N3 | > 100 µM |  | > 100 µM |  | > 100 µM | > 100 µM | > 100 µM |  | > 100 µM | > 100 µM |  |  |  |  |  |  |  |  |  | 
N#Cc1c(N)nc(N2CCOCC2)c(C#N)c1-c1ccc(Cl)cc1Cl | 28.8 µM | 56.4 µM |  |  |  | 41.3 µM | > 100 µM | 25.3 µM | 46.8 µM | 56.9 µM | 9.38 µM | 10.8 µM | 27.3 µM | 15.5 µM | 18.6 µM |  |  | 13.7 µM | 19.5 µM | 
Cc1[nH]n(C(=O)c2ccc(Cl)cc2)c(=O)c1/C=C1\C(O)=CC(=O)c2ccccc21 | > 100 µM |  | > 100 µM | > 100 µM | > 100 µM | > 100 µM | > 100 µM | > 100 µM | > 100 µM | > 100 µM |  |  |  |  |  |  |  |  |  | 
CC(=O)Nc1ccc(C(=O)NN2C(=O)CSC2c2ccccc2)cc1 (stereo not given) | > 100 µM | > 100 µM | > 100 µM | > 100 µM |  | > 100 µM | > 100 µM | > 100 µM |  | > 100 µM |  |  |  |  |  |  |  |  |  | 
CCOC(=O)Oc1ccc2[nH]c3c(C)cc(N)c(C)c3c2c1 |  | > 100 µM | > 100 µM | > 100 µM | > 100 µM | > 100 µM | > 100 µM | > 100 µM | > 100 µM | > 100 µM |  |  |  |  |  |  |  |  |  | 
CCOC(=O)C1C(=O)C(=O)N2CCc3c([nH]c4ccccc34)C12 (stereo not given) | > 100 µM | > 100 µM | > 100 µM |  | > 100 µM | > 100 µM | > 100 µM |  | > 100 µM | > 100 µM |  |  |  |  |  |  |  |  |  | 
COc1cc(COC(=O)NC(Cc2cccs2)C(=O)O)c([N+](=O)[O-])cc1OC (stereo not given) | > 100 µM | > 100 µM | > 100 µM | > 100 µM | > 100 µM | > 100 µM | > 100 µM | > 100 µM |  | > 100 µM |  |  |  |  |  |  |  |  |  | 
Cn1c(=O)c(-c2c(Cl)cccc2Cl)cc2cnc(Nc3ccc(N4CCOCC4)cc3)nc21 |  | > 100 µM | 5.09 µM |  | 0.491 µM | > 100 µM | > 100 µM |  | 0.0806 µM | 1.78 µM | 0.57 µM | < 0.0131 µM | 0.202 µM | 0.0944 µM | < 0.01 µM | 1.38 µM |  | 0.323 µM | 0.356 µM | 0.0196 µM
